Paper PMC7265341, “Quantifying CDK inhibitor selectivity in live cells” (Nature Communications, 2020)
Read-outs that look alike come from different tables or passages of the source.

Key:
CDK13/Cyclin K = CDK13/Cyclin K (Homo sapiens, UniProt Q14004); experiment: NanoBRET live-cell target engagement, CDK13-NanoLuc/Cyclin K in HEK-293; format: binding; details: CDK13/K, read-out: Inhibition at 10µM (%)
CDK7 = CDK7 (Homo sapiens, UniProt P50613); experiment: NanoBRET live-cell target engagement, NanoLuc-CDK7 in HEK-293; format: binding; details: CDK7, read-out: Inhibition at 10µM (%)
CDK17/Cyclin Y = CDK17/Cyclin Y (Homo sapiens, UniProt Q00537); experiment: NanoBRET live-cell target engagement, CDK17-NanoLuc/Cyclin Y in HEK-293; format: binding; details: read-out: Inhibition at 10µM (%), CDK17/Y
CDK6/Cyclin D1 = CDK6/Cyclin D1 (Homo sapiens, UniProt Q00534); experiment: NanoBRET live-cell target engagement, NanoLuc-CDK6/Cyclin D1 in HEK-293; format: binding; details: CDK6/D1, read-out: Inhibition at 10µM (%)
CDK8/Cyclin C = CDK8/Cyclin C (Homo sapiens, UniProt P49336); experiment: NanoBRET live-cell target engagement, NanoLuc-CDK8/Cyclin C in HEK-293; format: binding; details: CDK8/C, read-out: Inhibition at 10µM (%)
CDK2/Cyclin E1 = CDK2/Cyclin E1 (Homo sapiens, UniProt P24941); experiment: NanoBRET live-cell target engagement, CDK2-NanoLuc/Cyclin E1 in HEK-293; format: binding; details: CDK2/E1, read-out: Inhibition at 10µM (%)
CDK11A/Cyclin L2 = molecular target: T1, CDK11A/Cyclin L2 (Homo sapiens, UniProt Q9UQ88); experiment: NanoBRET live-cell target engagement, CDK11A-NanoLuc/Cyclin L2 in HEK-293; format: binding; details: read-out: Inhibition at 10µM (%), CDK11a/L2
T1 sequence (Q9UQ88 1-783): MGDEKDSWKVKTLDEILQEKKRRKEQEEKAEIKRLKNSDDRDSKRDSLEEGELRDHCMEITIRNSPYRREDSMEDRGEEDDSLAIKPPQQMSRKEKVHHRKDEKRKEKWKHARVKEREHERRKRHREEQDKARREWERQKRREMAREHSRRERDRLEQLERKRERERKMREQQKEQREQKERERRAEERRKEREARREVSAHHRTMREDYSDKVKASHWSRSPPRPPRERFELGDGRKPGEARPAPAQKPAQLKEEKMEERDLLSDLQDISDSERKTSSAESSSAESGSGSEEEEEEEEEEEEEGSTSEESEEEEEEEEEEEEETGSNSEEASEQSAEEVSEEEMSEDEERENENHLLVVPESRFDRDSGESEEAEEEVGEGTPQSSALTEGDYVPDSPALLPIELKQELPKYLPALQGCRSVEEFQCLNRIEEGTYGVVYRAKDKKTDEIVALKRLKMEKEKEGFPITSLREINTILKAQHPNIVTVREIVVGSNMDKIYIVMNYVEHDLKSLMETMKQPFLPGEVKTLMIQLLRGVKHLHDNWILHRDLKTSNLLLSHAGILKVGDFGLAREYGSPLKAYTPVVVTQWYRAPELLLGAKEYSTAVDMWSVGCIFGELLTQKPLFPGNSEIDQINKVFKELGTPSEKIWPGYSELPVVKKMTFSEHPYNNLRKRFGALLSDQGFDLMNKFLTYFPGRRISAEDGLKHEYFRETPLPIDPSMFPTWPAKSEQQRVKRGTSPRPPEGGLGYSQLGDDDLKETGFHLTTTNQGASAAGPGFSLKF

CDK12/Cyclin K = CDK12/Cyclin K (Homo sapiens, UniProt Q9NYV4); experiment: NanoBRET live-cell target engagement, CDK12-NanoLuc/Cyclin K in HEK-293; format: binding; details: read-out: Inhibition at 10µM (%), CDK12/K
CDK5/CDK5R1 = CDK5/CDK5R1 (Homo sapiens, UniProt Q00535); experiment: NanoBRET live-cell target engagement, CDK5-NanoLuc/CDK5R1 in HEK-293; format: binding; details: CDK5/CDK5R1, read-out: Inhibition at 10µM (%)
CDK4/Cyclin D1 = CDK4/Cyclin D1 (Homo sapiens, UniProt P11802); experiment: NanoBRET live-cell target engagement, NanoLuc-CDK4/Cyclin D1 in HEK-293; format: binding; details: CDK4/D1, read-out: Inhibition at 10µM (%)
CDK1/Cyclin E1 = CDK1/Cyclin E1 (Homo sapiens, UniProt P06493); experiment: NanoBRET live-cell target engagement, CDK1-NanoLuc/Cyclin E1 in HEK-293; format: binding; details: CDK1/E1, read-out: Inhibition at 10µM (%)
CDK20/Cyclin H = CDK20/Cyclin H (Homo sapiens, UniProt Q8IZL9); experiment: NanoBRET live-cell target engagement, NanoLuc-CDK20/Cyclin H in HEK-293; format: binding; details: read-out: Inhibition at 10µM (%), CDK20/H
CDK16/Cyclin Y = CDK16/Cyclin Y (Homo sapiens, UniProt Q00536); experiment: NanoBRET live-cell target engagement, CDK16-NanoLuc/Cyclin Y in HEK-293; format: binding; details: read-out: Inhibition at 10µM (%), CDK16/Y
CDK3/Cyclin E1 = CDK3/Cyclin E1 (Homo sapiens, UniProt Q00526); experiment: NanoBRET live-cell target engagement, CDK3-NanoLuc/Cyclin E1 in HEK-293; format: binding; details: CDK3/E1, read-out: Inhibition at 10µM (%)
CDK11B/Cyclin L2 = CDK11B/Cyclin L2 (Homo sapiens, UniProt P21127); experiment: NanoBRET live-cell target engagement, CDK11B-NanoLuc/Cyclin L2 in HEK-293; format: binding; details: read-out: Inhibition at 10µM (%), CDK11b/L2
CDK18/Cyclin Y = CDK18/Cyclin Y (Homo sapiens, UniProt Q07002); experiment: NanoBRET live-cell target engagement, CDK18-NanoLuc/Cyclin Y in HEK-293; format: binding; details: read-out: Inhibition at 10µM (%), CDK18/Y
CDK9/Cyclin K = CDK9/Cyclin K (Homo sapiens, UniProt P50750); experiment: NanoBRET live-cell target engagement, NanoLuc-CDK9/Cyclin K in HEK-293; format: binding; details: CDK9/K, read-out: Inhibition at 10µM (%)
CDK19/Cyclin C = CDK19/Cyclin C (Homo sapiens, UniProt Q9BWU1); experiment: NanoBRET live-cell target engagement, NanoLuc-CDK19/Cyclin C in HEK-293; details: read-out: Inhibition at 10µM (%), CDK19/C
CDK15/Cyclin Y = CDK15/Cyclin Y (Homo sapiens, UniProt Q96Q40); experiment: NanoBRET live-cell target engagement, NanoLuc-CDK15/Cyclin Y in HEK-293; format: binding; details: read-out: Inhibition at 10µM (%), CDK15/Y

CDK4/Cyclin D1, sequence (P11802 whole entry): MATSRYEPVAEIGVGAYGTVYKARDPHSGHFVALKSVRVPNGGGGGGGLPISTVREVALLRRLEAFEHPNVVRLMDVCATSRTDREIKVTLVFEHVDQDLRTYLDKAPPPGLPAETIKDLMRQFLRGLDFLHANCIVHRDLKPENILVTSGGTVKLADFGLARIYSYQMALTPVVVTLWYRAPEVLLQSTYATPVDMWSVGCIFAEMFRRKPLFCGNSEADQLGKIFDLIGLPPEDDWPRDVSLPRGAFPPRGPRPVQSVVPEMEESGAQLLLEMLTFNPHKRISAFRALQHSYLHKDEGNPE
CDK4/Cyclin D1, sequence (P24385 whole entry partner): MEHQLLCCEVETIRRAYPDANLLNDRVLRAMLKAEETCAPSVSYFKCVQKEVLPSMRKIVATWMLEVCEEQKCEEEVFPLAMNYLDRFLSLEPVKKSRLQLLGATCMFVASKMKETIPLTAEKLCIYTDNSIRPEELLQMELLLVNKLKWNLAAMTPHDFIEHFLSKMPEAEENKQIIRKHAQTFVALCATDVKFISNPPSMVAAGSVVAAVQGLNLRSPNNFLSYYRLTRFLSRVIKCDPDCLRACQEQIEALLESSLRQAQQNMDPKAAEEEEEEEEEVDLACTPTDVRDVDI
CDK11B/Cyclin L2, sequence (P21127 1-782 isoform P21127-2): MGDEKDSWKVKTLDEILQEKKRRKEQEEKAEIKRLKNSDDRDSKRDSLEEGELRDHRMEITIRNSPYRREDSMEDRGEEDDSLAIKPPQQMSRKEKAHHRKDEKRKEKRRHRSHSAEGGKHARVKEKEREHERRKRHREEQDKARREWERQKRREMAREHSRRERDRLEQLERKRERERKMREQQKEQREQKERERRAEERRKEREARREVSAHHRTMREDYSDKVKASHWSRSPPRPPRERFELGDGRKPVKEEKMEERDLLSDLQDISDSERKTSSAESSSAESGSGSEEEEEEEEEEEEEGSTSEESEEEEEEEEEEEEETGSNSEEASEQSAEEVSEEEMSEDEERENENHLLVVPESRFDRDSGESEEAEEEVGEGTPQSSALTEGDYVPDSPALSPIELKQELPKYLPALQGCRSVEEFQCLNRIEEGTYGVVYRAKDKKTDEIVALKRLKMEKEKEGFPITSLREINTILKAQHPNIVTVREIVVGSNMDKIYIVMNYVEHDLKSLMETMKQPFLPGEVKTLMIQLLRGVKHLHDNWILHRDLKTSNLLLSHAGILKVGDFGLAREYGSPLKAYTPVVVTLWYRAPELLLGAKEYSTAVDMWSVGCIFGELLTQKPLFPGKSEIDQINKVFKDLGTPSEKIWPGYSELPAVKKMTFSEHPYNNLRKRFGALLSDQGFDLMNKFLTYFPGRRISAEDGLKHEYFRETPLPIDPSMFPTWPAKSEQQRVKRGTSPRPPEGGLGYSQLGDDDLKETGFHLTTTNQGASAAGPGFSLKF
CDK9/Cyclin K, sequence (P50750 whole entry): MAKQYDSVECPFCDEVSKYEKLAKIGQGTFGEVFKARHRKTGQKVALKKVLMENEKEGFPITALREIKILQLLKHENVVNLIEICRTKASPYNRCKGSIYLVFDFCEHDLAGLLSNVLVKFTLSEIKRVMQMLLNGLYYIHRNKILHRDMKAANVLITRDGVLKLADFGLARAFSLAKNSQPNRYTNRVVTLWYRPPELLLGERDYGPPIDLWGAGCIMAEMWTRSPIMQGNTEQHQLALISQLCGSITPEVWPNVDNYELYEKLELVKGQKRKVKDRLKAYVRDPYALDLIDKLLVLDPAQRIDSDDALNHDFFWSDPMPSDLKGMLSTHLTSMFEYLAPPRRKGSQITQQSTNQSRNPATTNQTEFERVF
CDK9/Cyclin K, sequence (O75909 whole entry partner): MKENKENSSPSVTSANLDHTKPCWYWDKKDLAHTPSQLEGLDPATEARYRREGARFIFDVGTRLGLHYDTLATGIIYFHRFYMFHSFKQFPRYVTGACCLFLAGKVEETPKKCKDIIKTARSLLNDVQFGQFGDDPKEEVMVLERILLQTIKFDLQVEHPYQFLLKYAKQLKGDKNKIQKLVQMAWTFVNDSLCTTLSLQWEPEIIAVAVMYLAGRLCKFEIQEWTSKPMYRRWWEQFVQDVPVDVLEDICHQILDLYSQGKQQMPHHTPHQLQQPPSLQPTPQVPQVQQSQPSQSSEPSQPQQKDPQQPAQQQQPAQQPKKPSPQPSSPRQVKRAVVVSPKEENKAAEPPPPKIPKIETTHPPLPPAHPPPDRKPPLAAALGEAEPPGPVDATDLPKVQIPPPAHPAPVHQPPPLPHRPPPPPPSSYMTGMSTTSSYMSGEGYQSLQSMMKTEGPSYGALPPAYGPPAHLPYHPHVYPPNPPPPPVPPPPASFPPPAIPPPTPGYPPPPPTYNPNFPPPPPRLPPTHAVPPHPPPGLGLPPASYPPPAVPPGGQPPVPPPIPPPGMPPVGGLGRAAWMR
CDK1/Cyclin E1, sequence (P06493 whole entry): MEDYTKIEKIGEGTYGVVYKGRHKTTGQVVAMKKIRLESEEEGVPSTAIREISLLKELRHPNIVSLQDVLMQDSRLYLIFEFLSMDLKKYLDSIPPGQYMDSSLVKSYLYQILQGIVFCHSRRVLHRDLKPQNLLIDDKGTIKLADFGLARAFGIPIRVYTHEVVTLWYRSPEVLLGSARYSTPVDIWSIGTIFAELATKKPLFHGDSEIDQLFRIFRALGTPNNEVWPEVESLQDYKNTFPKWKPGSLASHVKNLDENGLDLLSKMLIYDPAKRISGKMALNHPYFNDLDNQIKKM
CDK1/Cyclin E1, sequence (P24864 whole entry partner): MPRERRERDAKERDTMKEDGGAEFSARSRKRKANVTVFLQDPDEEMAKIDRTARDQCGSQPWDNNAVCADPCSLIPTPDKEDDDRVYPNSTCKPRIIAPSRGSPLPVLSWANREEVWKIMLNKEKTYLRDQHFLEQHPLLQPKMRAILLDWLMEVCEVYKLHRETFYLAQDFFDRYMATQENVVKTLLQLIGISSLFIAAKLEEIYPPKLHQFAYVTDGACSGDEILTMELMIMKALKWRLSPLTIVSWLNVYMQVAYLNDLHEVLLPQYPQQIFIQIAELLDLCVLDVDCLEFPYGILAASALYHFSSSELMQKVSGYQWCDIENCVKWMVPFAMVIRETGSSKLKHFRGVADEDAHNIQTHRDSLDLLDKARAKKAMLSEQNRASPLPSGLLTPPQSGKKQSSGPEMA
CDK13/Cyclin K, sequence (O75909 whole entry): as the sequence (O75909 whole entry partner) above
CDK13/Cyclin K, sequence (Q14004 other isoform, or with tags, fused parts or gaps): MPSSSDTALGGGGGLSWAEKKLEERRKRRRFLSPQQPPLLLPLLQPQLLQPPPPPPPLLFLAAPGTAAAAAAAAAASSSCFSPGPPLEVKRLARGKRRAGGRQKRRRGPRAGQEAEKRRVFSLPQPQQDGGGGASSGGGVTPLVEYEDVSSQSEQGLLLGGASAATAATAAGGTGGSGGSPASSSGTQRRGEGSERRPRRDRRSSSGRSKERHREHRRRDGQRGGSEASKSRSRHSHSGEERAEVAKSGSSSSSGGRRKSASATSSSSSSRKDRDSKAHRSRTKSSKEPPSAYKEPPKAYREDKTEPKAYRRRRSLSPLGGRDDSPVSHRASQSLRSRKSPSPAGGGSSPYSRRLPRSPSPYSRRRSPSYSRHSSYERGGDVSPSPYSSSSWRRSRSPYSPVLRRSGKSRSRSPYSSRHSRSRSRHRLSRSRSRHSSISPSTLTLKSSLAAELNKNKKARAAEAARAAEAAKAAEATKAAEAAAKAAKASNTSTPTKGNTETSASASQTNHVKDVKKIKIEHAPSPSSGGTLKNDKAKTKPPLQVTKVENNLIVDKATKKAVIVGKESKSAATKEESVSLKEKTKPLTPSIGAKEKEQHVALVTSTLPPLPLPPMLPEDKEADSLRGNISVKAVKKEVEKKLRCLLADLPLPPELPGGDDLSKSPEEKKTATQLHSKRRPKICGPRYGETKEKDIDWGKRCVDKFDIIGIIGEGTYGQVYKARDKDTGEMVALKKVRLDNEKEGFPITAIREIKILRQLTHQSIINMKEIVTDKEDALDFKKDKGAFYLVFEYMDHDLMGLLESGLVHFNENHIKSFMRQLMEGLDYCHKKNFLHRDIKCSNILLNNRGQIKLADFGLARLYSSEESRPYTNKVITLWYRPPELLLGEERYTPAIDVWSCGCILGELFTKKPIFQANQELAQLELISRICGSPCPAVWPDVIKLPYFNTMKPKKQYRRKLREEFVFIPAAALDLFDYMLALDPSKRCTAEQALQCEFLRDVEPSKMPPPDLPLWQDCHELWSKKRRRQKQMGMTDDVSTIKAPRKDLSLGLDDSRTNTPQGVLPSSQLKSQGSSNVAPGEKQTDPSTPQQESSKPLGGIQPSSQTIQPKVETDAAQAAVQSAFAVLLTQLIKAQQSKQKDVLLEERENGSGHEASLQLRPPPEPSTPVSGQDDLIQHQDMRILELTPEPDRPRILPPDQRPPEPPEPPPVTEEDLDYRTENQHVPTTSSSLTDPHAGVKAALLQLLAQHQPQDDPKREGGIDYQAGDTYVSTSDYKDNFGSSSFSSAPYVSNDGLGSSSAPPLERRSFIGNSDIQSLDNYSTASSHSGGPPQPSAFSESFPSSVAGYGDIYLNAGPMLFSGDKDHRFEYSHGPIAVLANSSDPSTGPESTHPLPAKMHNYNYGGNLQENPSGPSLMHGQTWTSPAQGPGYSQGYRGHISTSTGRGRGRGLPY
CDK6/Cyclin D1, sequence (Q00534 whole entry): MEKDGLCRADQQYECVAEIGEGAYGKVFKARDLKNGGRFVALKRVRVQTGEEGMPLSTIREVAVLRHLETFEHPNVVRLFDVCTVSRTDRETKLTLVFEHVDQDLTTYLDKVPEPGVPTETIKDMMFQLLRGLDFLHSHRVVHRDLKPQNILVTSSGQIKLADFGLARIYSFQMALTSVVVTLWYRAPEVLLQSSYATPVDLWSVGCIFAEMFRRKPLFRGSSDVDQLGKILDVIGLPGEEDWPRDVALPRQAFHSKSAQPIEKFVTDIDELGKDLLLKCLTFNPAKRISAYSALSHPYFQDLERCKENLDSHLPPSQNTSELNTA
CDK6/Cyclin D1, sequence (P24385 whole entry partner): as the sequence (P24385 whole entry partner) above

With `COc1ccccc1-c1cc(Nc2cccc(CS(N)(=O)=O)c2)ncn1` [LDC000067] the inhibition at 10 µM (CDK13/Cyclin K; average) was 10.2%, the inhibition at 10 µM (CDK13/Cyclin K; experiment 1) was 7.7% and the inhibition at 10 µM (CDK13/Cyclin K; experiment 2) was 12.8%. For the same molecule, the inhibition at 10 µM (CDK7; average) was -9.3%, the inhibition at 10 µM (CDK7; experiment 1) was -12.1% and the inhibition at 10 µM (CDK7; experiment 2) was -6.5%. It also gave an inhibition at 10 µM (CDK17/Cyclin Y; average) of 19%, an inhibition at 10 µM (CDK17/Cyclin Y; experiment 1) of 20.7% and an inhibition at 10 µM (CDK17/Cyclin Y; experiment 2) of 17.3%. For the same molecule, the inhibition at 10 µM (CDK6/Cyclin D1; average) was 38.7%, the inhibition at 10 µM (CDK6/Cyclin D1; experiment 1) was 31.9% and the inhibition at 10 µM (CDK6/Cyclin D1; experiment 2) was 45.4%. The inhibition at 10 µM (CDK8/Cyclin C; average) was 5.3%, the inhibition at 10 µM (CDK8/Cyclin C; experiment 1) was 5.1% and the inhibition at 10 µM (CDK8/Cyclin C; experiment 2) was 5.6%. The inhibition at 10 µM (CDK2/Cyclin E1; average) was 18.7%, the inhibition at 10 µM (CDK2/Cyclin E1; experiment 1) was 15.1% and the inhibition at 10 µM (CDK2/Cyclin E1; experiment 2) was 22.2%. The inhibition at 10 µM (CDK11A/Cyclin L2; average) was 7.5%, the inhibition at 10 µM (CDK11A/Cyclin L2; experiment 1) was 4.3% and the inhibition at 10 µM (CDK11A/Cyclin L2; experiment 2) was 10.7%. It also gave an inhibition at 10 µM (CDK12/Cyclin K; average) of 22.1%, an inhibition at 10 µM (CDK12/Cyclin K; experiment 1) of 7% and an inhibition at 10 µM (CDK12/Cyclin K; experiment 2) of 37.2%. It also gave an inhibition at 10 µM (CDK5/CDK5R1; average) of 11.4%, an inhibition at 10 µM (CDK5/CDK5R1; experiment 1) of 17.5% and an inhibition at 10 µM (CDK5/CDK5R1; experiment 2) of 5.3%. It also gave an inhibition at 10 µM (CDK4/Cyclin D1; average) of 44%, an inhibition at 10 µM (CDK4/Cyclin D1; experiment 1) of 41.2% and an inhibition at 10 µM (CDK4/Cyclin D1; experiment 2) of 46.7%. It also gave an inhibition at 10 µM (CDK1/Cyclin E1; average) of 31.6%, an inhibition at 10 µM (CDK1/Cyclin E1; experiment 1) of 30.7% and an inhibition at 10 µM (CDK1/Cyclin E1; experiment 2) of 32.5%. The inhibition at 10 µM (CDK20/Cyclin H; experiment 1) was 11.2%, the inhibition at 10 µM (CDK20/Cyclin H; experiment 2) was 17.8% and the inhibition at 10 µM (CDK16/Cyclin Y; experiment 1) was 17%. It also gave an inhibition at 10 µM (CDK16/Cyclin Y; experiment 2) of 12.6%, an inhibition at 10 µM (CDK3/Cyclin E1; average) of 27.7% and an inhibition at 10 µM (CDK3/Cyclin E1; experiment 1) of 23.7%. It also gave an inhibition at 10 µM (CDK3/Cyclin E1; experiment 2) of 31.7%, an inhibition at 10 µM (CDK11B/Cyclin L2; average) of 10.2% and an inhibition at 10 µM (CDK11B/Cyclin L2; experiment 1) of 9.7%. It also gave an inhibition at 10 µM (CDK11B/Cyclin L2; experiment 2) of 10.7%, an inhibition at 10 µM (CDK18/Cyclin Y; average) of 8.7% and an inhibition at 10 µM (CDK18/Cyclin Y; experiment 1) of 5.1%. For the same molecule, the inhibition at 10 µM (CDK18/Cyclin Y; experiment 2) was 12.3%, the inhibition at 10 µM (CDK9/Cyclin K; average) was 88.8% and the inhibition at 10 µM (CDK9/Cyclin K; experiment 1) was 87.2%. For the same molecule, the inhibition at 10 µM (CDK9/Cyclin K; experiment 2) was 90.3%, the inhibition at 10 µM (CDK19/Cyclin C; average) was 11.4% and the inhibition at 10 µM (CDK19/Cyclin C; experiment 1) was 16.6%. It also gave an inhibition at 10 µM (CDK19/Cyclin C; experiment 2) of 6.1%, an inhibition at 10 µM (CDK15/Cyclin Y; average) of -1% and an inhibition at 10 µM (CDK15/Cyclin Y; experiment 1) of 3%. The inhibition at 10 µM (CDK15/Cyclin Y; experiment 2) was -5%.
